Tests used:
[1] = Drug metabolism in rat liver microsomes assessed as C-hydroxylation of THN mediated M2 metabolite formation incubated for 60 mins by HPLC/MS analysis; assay type: ADME, Microsome; settings: 1 h
[2] = Drug metabolism in rat blood assessed as reduction of aldehyde group measured at 1 uM within 1 hr by LC-MS/MS analysis; assay type: ADME, tissue-based; settings: read-out: Drug metabolism
[3] = Metabolic stability in rat liver S9 fraction assessed as parent compound remaining at 1 uM incubated for 60 mins in presence of NADPH by HPLC/MS analysis; assay type: ADME, subcellular; settings: read-out: Stabilty
[4] = Metabolic stability in rat blood at 1 uM assessed as parent compound remaining incubated for 60 mins by HPLC/MS analysis; assay type: ADME, tissue-based; settings: read-out: Stabilty
[5] = Volume of distribution at steady state in Crl:CD (SD) rat at 1 mg/kg, iv or 3 mg/kg, po measured upto 24 hrs by LC-MS/MS analysis; assay type: ADME, organism-based; settings: in vivo, read-out: Vdss
[6] = Permeability of the compound in human Caco-2 cells assessed as compound recovery at 10 uM measured after 2 hrs by LC/MS/MS analysis; assay type: ADME, cell-based; settings: read-out: Drug recovery
[7] = AUC in Crl:CD (SD) rat at 1 mg/kg, iv formulated in PEG200/NMP measured upto 24 hrs by LC-MS/MS analysis; assay type: ADME, organism-based; set-up: route intravenous, dose 1 mg/kg, time <=24; settings: in vivo
[8] = Metabolic stability in rat liver microsomes assessed as parent compound remaining incubated for 60 mins by HPLC/MS analysis; assay type: ADME, Microsome; settings: read-out: Stabilty
[9] = Metabolic stability in rat plasma assessed as parent compound remaining at 1 uM incubated for 60 mins by HPLC/MS analysis; assay type: ADME, cell-free; settings: read-out: Stabilty
[10] = Oral bioavailability in Crl:CD (SD) rat at 3 mg/kg measured upto 24 hrs by LC-MS/MS analysis; assay type: ADME, organism-based; settings: in vivo
[11] = Metabolic stability in rat liver S9 fraction at 1 uM assessed as parent compound remaining incubated for 60 mins by HPLC/MS analysis; assay type: ADME, subcellular; settings: read-out: Stabilty
[12] = AUC in Crl:CD (SD) rat at 3 mg/kg, po measured upto 24 hrs by LC-MS/MS analysis; assay type: ADME, organism-based; set-up: route oral, dose 3 mg/kg, time <=24; settings: in vivo
[13] = Drug metabolism in rat liver microsome assessed as reduction of aldehyde group at 10 mM measured after 15 mins in presence of NADPH by LC-MS analysis; assay type: ADME; settings: microsomes, 10000 µM
[14] = Clearance in Crl:CD (SD) rat at 1 mg/kg, iv or 3 mg/kg, po measured up to 24 hrs by LC-MS/MS analysis; assay type: ADME, organism-based; settings: in vivo
[15] = Half-life in Crl:CD (SD) rat at 1 mg/kg, iv or 3 mg/kg, po measured upto 24 hrs by LC-MS/MS analysis; assay type: ADME, organism-based; settings: in vivo
[16] = Drug metabolism in rat liver microsomes assessed as glucuronidation by measuring (2S,3S,4S,5R,6R)-6-((8-(5-cyanopyridin-2-ylcarbamoyl)-5,6,7,8-tetrahydro-1,8-naphthyridin-2-yl)methoxy)-3,4,5-trihydroxytetrahydro-2H-pyran-2-carboxylic acid metabolite formation incubated for 60 mins by HPLC/MS analysis; assay type: ADME, Microsome; settings: 1 h
[17] = Drug metabolism in rat liver microsomes assessed as C-hydroxylation of THN mediated M3 metabolite formation incubated for 60 mins by HPLC/MS analysis; assay type: ADME, Microsome; settings: 1 h
[18] = Drug metabolism in human liver microsome assessed as reduction of aldehyde group at 10 mM measured after 15 mins in presence of NADPH by LC-MS analysis; assay type: ADME; settings: microsomes, 10000 µM
[19] = Lipophilicity, log D of the compound in 1-octanol at pH 7.4 by potentiometric titration method; assay type: physicochemical
[20] = Drug metabolism in rat feces assessed as reduction of aldehyde group measured after 20 hrs incubated under anaerobic condition measured by LC-MS analysis; assay type: ADME, tissue-based
[21] = Clearance in C57BL/6 mouse at 1 mg/kg, iv or 3 mg/kg, po measured upto 24 hrs by LC-MS/MS analysis; assay type: ADME, organism-based; settings: in vivo
[22] = Volume of distribution at steady state in C57BL/6 mouse at 1 mg/kg, iv or 3 mg/kg, po measured upto 24 hrs by LC-MS/MS analysis; assay type: ADME, organism-based; settings: in vivo, read-out: Vdss
[23] = Plasma concentration in mouse xenografted with human RH41 cells at 30 mg/kg, po by LC-MS/MS analysis; assay type: ADME, organism-based; settings: in vivo
[24] = Plasma concentration in mouse xenografted with human RH30 cells at 30 mg/kg, po by LC-MS/MS analysis; assay type: ADME, organism-based; settings: in vivo
[25] = Half-life in C57BL/6 mouse at 1 mg/kg, iv or 3 mg/kg, po measured upto 24 hrs by LC-MS/MS analysis; assay type: ADME, organism-based; settings: in vivo
[26] = Oral bioavailability in C57BL/6 mouse at 3 mg/kg measured upto 24 hrs by LC-MS/MS analysis; assay type: ADME, organism-based; settings: in vivo
[27] = Drug metabolism in human Caco-2 cells assessed as oxidation of aldehyde group at 10 uM incubated from 30 to 120 mins by LC-MS/MS analysis; assay type: ADME, cell-based; settings: caco-2, 10 µM, time 30-120 min
[28] = Drug metabolism in human Caco-2 cells assessed as depletion of parent compound at 10 uM measured after 1 hr by LC-MS/MS analysis; assay type: ADME, cell-based; settings: read-out: Drug degradation
[29] = Drug metabolism in human Caco-2 cells assessed as reduction of aldehyde group at 10 uM incubated from 30 to 120 mins by LC-MS/MS analysis; assay type: ADME, cell-based; settings: caco-2, 10 µM, time 30-120 min
[30] = Volume of distribution at steady state in Beagle dog at 0.1 mg/kg, iv or 0.3 mg/kg, po by LC-MS/MS analysis; assay type: ADME, organism-based, Canis lupus familiaris; settings: in vivo, read-out: Vdss
[31] = Plasma concentration in mouse xenografted with human Huh7 cells at 30 mg/kg, po BID administered for 14 days measured 12 hrs post-last dose; assay type: ADME, organism-based; settings: time 14 day
[32] = AUC (0 to 12 hrs) in C57BL/6 mouse at 30 mg/kg, po BID treated for 6 days measured by LC-MS/MS analysis; assay type: ADME, organism-based; set-up: route oral, dose 30 mg/kg, time 6 day; settings: in vivo
[33] = Dose normalized AUC in Crl:CD (SD) rat at 1 mg/kg, iv measured up to 24 hrs by LC-MS/MS analysis; assay type: ADME, organism-based; settings: in vivo
[34] = Dose normalized AUC in Crl:CD (SD) rat at 3 mg/kg, po measured up to 24 hrs by LC-MS/MS analysis; assay type: ADME, organism-based; settings: in vivo
[35] = AUC in Beagle dog at 0.3 mg/kg, po by LC-MS/MS analysis; assay type: ADME, organism-based, Canis lupus familiaris; set-up: dose 0.3 mg/kg; settings: in vivo
[36] = Thermodynamic solubility of compound in phosphate buffer at pH 6.8 measured after 15 mins by shake-flask method based LC-HRMS analysis; assay type: physicochemical; settings: read-out: Therm_solubility
[37] = Half-life in C57BL/6 mouse at 0.5 mg/kg, iv measured up to 24 hrs by LC-MS/MS analysis; assay type: ADME, organism-based; settings: in vivo
[38] = Half-life in Beagle dog at 0.1 mg/kg, iv or 0.3 mg/kg, po by LC-MS/MS analysis; assay type: ADME, organism-based, Canis lupus familiaris; settings: in vivo
[39] = AUC in Beagle dog at 0.1 mg/kg, iv by LC-MS/MS analysis; assay type: ADME, organism-based, Canis lupus familiaris; set-up: dose 0.1 mg/kg; settings: in vivo
[40] = AUC (0 to 24 hrs) in Crl:CD (SD) rat at 30 mg/kg, po qd treated for 1 day measured by LC-MS/MS analysis; assay type: ADME, organism-based; set-up: route oral, time 1 day, dose 30 mg/kg; settings: in vivo
[41] = AUC (0 to 24 hrs) in Crl:CD (SD) rat at 10 mg/kg, po qd treated for 1 day measured by LC-MS/MS analysis; assay type: ADME, organism-based; set-up: route oral, dose 10 mg/kg, time 1 day; settings: in vivo
[42] = Oral bioavailability in Beagle dog at 0.3 mg/kg by LC-MS/MS analysis; assay type: ADME, organism-based, Canis lupus familiaris; settings: in vivo, 0.3 mg/kg
[43] = Volume of distribution at steady state in C57BL/6 mouse at 0.5 mg/kg, iv measured up to 24 hrs by LC-MS/MS analysis; assay type: ADME, organism-based; settings: in vivo, read-out: Vdss
[44] = AUC (0 to 24 hrs) in Crl:CD (SD) rat at 100 mg/kg, po qd treated for 1 day measured by LC-MS/MS analysis; assay type: ADME, organism-based; set-up: route oral, time 1 day, dose 100 mg/kg; settings: in vivo
[45] = Clearance in C57BL/6 mouse at 0.5 mg/kg, iv measured up to 24 hrs by LC-MS/MS analysis; assay type: ADME, organism-based; settings: in vivo
[46] = AUC in C57BL/6 mouse at 0.5 mg/kg, iv measured up to 24 hrs by LC-MS/MS analysis; assay type: ADME, organism-based; set-up: route intravenous, dose 0.5 mg/kg, time <=24; settings: in vivo
[47] = Tmax in Sprague-Dawley rat at 10 to 100 mg/kg, po qd for 10 days by LC-MS/MS analysis; assay type: ADME, organism-based; settings: in vivo, dose 10-100 mg/kg, time 10 day
[48] = Drug absorption in Sprague-Dawley rat at 10 to 100 mg/kg, po qd for 10 days by LC-MS/MS analysis; assay type: ADME, organism-based; settings: in vivo, 240 h, dose 10-100 mg/kg, time 10 day

With `N#Cc1ccc(NC(=O)N2CCCc3ccc(C=O)nc32)nc1` the Drug metabolism [1] was “Metabolite_Detected”, the metabolised at 1 h, 1 µM [2] was > 50% and the remaining at 1 h, 1 µM [3] was 1%. For the same molecule, the remaining at 1 h, 1 µM [4] was 22%, the Vd [5] was 3.4 L/kg and the recovery at 2 h, 10 µM [6] was < 10%. It also gave an AUC [7] of 1.232 µM·h, a remaining at 1 h [8] of 7% and a remaining at 1 h, 1 µM [9] of 100%. For the same molecule, the F ([10]; 3 mg/kg, 24 h) was 4%, the remaining at 1 h, 1 µM [11] was 61% and the AUC [12] was 0.054 µM·h. The Drug metabolism [13] was “Metabolite_Detected”, the clearance [14] was 44 mL/min/kg and the half-life [15] was 1.3 h. For the same molecule, the Drug metabolism [16] was “Metabolite_Detected”, the Drug metabolism [17] was “Metabolite_Detected” and the Drug metabolism [18] was “Metabolite_Detected”. For the same molecule, the logD [19] was 2.9 and the Drug metabolism [20] was “Metabolite_Detected”.
In the case of `COCCNc1cc(NC(=O)N2CCCc3cc(CO)c(C=O)nc32)ncc1C#N`, the clearance [21] is reported as 77 mL/min/kg, the Vd [22] is reported as 1.6 L/kg and the concentration [23] is reported as < 40 nM. For the same molecule, the recovery at 2 h, 10 µM [6] was < 10%, the concentration [24] was < 40 nM and the half-life [25] was 0.8 h. The Drug metabolism [13] was “Metabolite_Detected”, the bioavailability [26] was 22% and the Drug metabolism [18] was “Metabolite_Detected”.
For `N#Cc1cnc(NC(=O)N2CCCc3ccc(C=O)nc32)nc1`, the Drug metabolism [27] was “Metabolite_Detected”, the metabolised at 1 h, 10 µM [28] was 80% and the recovery at 2 h, 10 µM [6] was < 10%. For the same molecule, the Drug metabolism [29] was “Metabolite_Detected”, the Drug metabolism [13] was “Metabolite_Detected” and the Drug metabolism [18] was “Metabolite_Detected”.
`CC(C)Oc1cc(NC(=O)N2CCCc3cc(CN4CCCC4=O)c(C=O)nc32)ncc1C#N` gave a Vd [30] of 1.1 L/kg, a concentration at 336 h [31] of 500 nM and a Vd [5] of 7.2 L/kg. For the same molecule, the AUC at 144 h [32] was 8250 ng·h/mL, the AUC/dose [33] was 1768 nM·h and the AUC/dose [34] was 587 nM·h. The AUC [35] was 5.05 µM·h, the solubility thermodynamic at […] [36] was < 6 µM and the half-life [37] was 5.2 h. It also gave a half-life [38] of 8.1 h, an AUC [39] of 20.082 µM·h and an AUC at 24 h [40] of 5400 ng·h/mL. It also gave an AUC at 24 h [41] of 2830 ng·h/mL, a bioavailability ([10]; Crl:CD (SD)) of 33% and an F [42] of 25%. It also gave a Vd [43] of 1.4 L/kg, an AUC at 24 h [44] of 18700 ng·h/mL and a clearance [14] of 21 mL/min/kg. The clearance [45] was 8 mL/min/kg, the half-life [15] was 14.2 h and the AUC at 24 h [46] was 4.54 µM·h. For the same molecule, the Tmax [47] was 2 h and the Drug absorption [48] was “Active”.

From ChEMBL document CHEMBL4715854, “Discovery of Roblitinib (FGF401) as a Reversible-Covalent Inhibitor of the Kinase Activity of Fibroblast Growth Factor Receptor 4” (J Med Chem, 2020)
